Reference: patent US9415106B2, “α-form zinc-phthalocyanine nanowires having enhanced water solubility and water dispersibility, composite of an α-form zinc-phthalocyanine nanowire/phenothiazine, and method for preparing same” (POHANG UNIVERSITY OF SCIENCE AND TECHNOLOGY INDUSTRY …, priority 2011, dated 2016)

Legend:
[1] = Water solubility, dispersibility and stability of aqueous solution after sonication; type: physicochemical
Experimental: An α-form ZnPc nanowire solution was prepared by adding 1 mg of α-form ZnPc nanowires collected from Si substrates into 5 ml of water, followed by sonication for various times in a bath sonicator (UC-10, JEIOTECH). The final solution was transferred for the measurement of optical absorbance using a UV-vis spectrometer (Agilent 8453 spectrophotometer). The concentration of the α-form ZnPc nanowire solution was determined by measurement of optical absorbance at 219 nm. The calibration curve was made by measuring the optical absorbance of a sequentially diluted solution at 219 nm.

KB cells = test: ROS generation in KB cells (Image-iT LIVE ROS Kit, H2DCFDA fluorescence); type: cell-based, human; conditions: irradiated with NIR 808 nm, 3 W/cm^2
Experimental: The PD activity of α-form ZnPc nanowire was proven by detecting reactive oxygen species generated upon illumination with NIR upon irradiation with NIR (λ=808 nm) laser. The reactive oxygen species generated from NIR-activated KB cells containing α-form ZnPc nanowires was assessed using Image-iT™ LIVE Reactive Oxygen Species (ROS) Kit.
This experiment is based on 5-(and-6)-carboxy-2′7′-dichlorodihydrofluorescein diacetate (carboxy-H2DCFDA) as a fluorogenic marker for ROS permeated viable cells. In the presence of ROS, the reduced carboxy-H2DCFDA is supposed to be oxidized to emit bright green fluorescence. Therefore, the oxidatively stressed cells by ROS could be recognized by green fluorescence.
The generation of reactive oxygen species (ROS) was monitored using Image-iT™ LIVE Reactive Oxygen Species Kit based on H2DCFDA (Molecular Probes/Invitrogen), following the manufacturer's protocol. Pre-seeded epidermoid mouth carcinoma cells (KB cells) were incubated with ZnPc nanowire solution (120 mg/L) at 37° C. with 5% CO2 for 18 hours. Then, after washing the cells thoroughly with phosphate buffer saline (PBS), the cells were irradiated with an 808 nm laser. […] In the presence of ROS, the reduced fluorescein compound is oxidized and emits bright green fluorescence. Fluorescence intensity was measured at 529 nm using a fluorescence spectrometer (Cary Eclipse, Varian).

[2] = Photothermal property: temperature change of aqueous solutions upon laser irradiation; type: physicochemical; conditions: 3 W/cm^2, 3 minutes
Experimental: The PT property was examined by monitoring temperature changes of α-form ZnPc nanowire aqueous solutions (60, 80, 120 mg/L) upon light illumination at two different wavelengths (λ) of 660 nm, at which the highest absorption occurs, and 808 nm, at which most biological systems become transparent, at the power of 3 W/cm^2.
The α-form ZnPc nanowire solution and zinc phthalocyanine tetrasulfonate (ZnPcS4) solutions at various concentrations (60, 80, 120 mg/L) were irradiated using a 660/808 nm laser (diode laser, JENOPTIK unique-mode GmbH, Germany) at 3 W/cm^2. The temperature of each solution was measured with a thermocouple connected temperature controller (Hanyoung, Korea) at 20-second intervals for a total of 3 minutes. Three sets per each solution were measured.

Compound | water solubility (qualitative) [1] | amount of ROS generated (green fluorescence) (KB cells) | temperature of solution upon laser irradiation ([2]; 660 nm (FIGS. 18, 19), from room temperature, 60-120 mg/L) | temperature of solution upon laser irradiation ([2]; 808 nm, 120 mg/L)
[Zn+2].c1ccc2c(c1)-c1nc-2nc2[n-]c(nc3nc([n-]c4nc(n1)-c1ccccc1-4)-c1ccccc1-3)c1ccccc21 [ZnPc powder, zinc-phthalocyanine] | did not increase |  |  | 
zinc phthalocyanine tetrasulfonate [ZnPcS4] |  | insignificant | similar | negligible temperature changes
